# Measured values taken from patent US9132291B2, “Water-in-oil emulsion compositions containing gellan gum for topical delivery of active ingredients to the skin or mucosa” (DFB Technology, Ltd., priority 2010, dated 2015).
# Where a name gives a salt, the structure may show the parent alone.
# Test: In-Vitro Release Test (Franz Cell diffusion apparatus, 0.45 um Durapore HVLP membrane)
# Format: physicochemical
# Details: 0.5-6 hours at 35° C.
# Procedure: A 0.45 um Durapore HVLP membrane was used between the donor and receptor compartments. The receptor fluid used for analysis of lidocaine HCl was 0.2M NaH2PO4/EtOH/SDS (69/30/1). The receptor fluid used for analysis of metronidazole was 600 mL Ethanol (USP) and 400 mL Phosphate Buffer (1.3 g Na2HPO4 and 1.5 g KH2PO4). The receptor fluid used for analysis of allantoin was 10 mM KH2PO4 buffer (pH=4.7). The sampling of the receptor fluid was performed at 0.5, 1, 2, 4 and 6 hours at 35° C. The concentration of the released actives in the collected samples of the receptor fluid was determined by HPLC analysis. The HPLC mobile phase used for analysis of lidocaine HCl was 0.2M NaH2PO4/EtOH/SDS (69/30/1). The HPLC mobile phase used for analysis of metronidazole was 600 mL Ethanol (USP) and 400 mL Phosphate Buffer (1.3 g Na2HPO4 and 1.5 g KH2PO4). The HPLC mobile phase used for analysis of allantoin was ACN/Water (90/10).
compound,measurement,setting,value
"NC(=O)NC1NC(=O)NC1=O (stereo not drawn) [allantoin, Allantoin]",rate of release of allantoin,"Formulas D, E, F (0%, 0.45%, 0.75% gellan gum; 0.1% allantoin) W/O emulsion, receptor fluid 10 mM KH2PO4 buffer pH 4.7, FIG. 3 and FIG. 4",increased as the concentration of gellan gum increased
"CCN(CC)CC(=O)Nc1c(C)cccc1C [lidocaine HCl, Lidocaine HCl]",rate of release of lidocaine HCl,"Formulas G, H, I (0%, 0.45%, 0.75% gellan gum; 2.0% lidocaine HCl) W/O emulsion, receptor fluid 0.2M NaH2PO4/EtOH/SDS (69/30/1), FIG. 5 and FIG. 6",increased as the concentration of gellan gum increased
"Cc1ncc([N+](=O)[O-])n1CCO [metronidazole, Metronidazole]",rate of release of metronidazole,"Formulas A, B, C (0%, 0.45%, 0.75% gellan gum; 0.75% metronidazole) W/O emulsion, receptor fluid ethanol/phosphate buffer, FIG. 1 and FIG. 2",increased as the concentration of gellan gum increased
